Measured values as given in US20060099712A1, “Correlation of anti-cancer activity of dyes with redox potentials” (Eastman Kodak Company, priority 2004, published 2006).
≈ marks a conversion by molar mass, not a printed value.

How the values were obtained:
[1] = test system: CCL 185 Human Lung Carcinoma; test: Initial in vitro screening, lung carcinoma cells; assay type: cell-based; details: for Selectivity: IC50 CV-1 / IC50 cell line 6 (lung carcinoma); for IC50: read-out: IC50 (concentration at which 50% of the cells of the culture are killed)
Source text: (§1) Other publications have shown that some cyanine dyes show anti-cancer activity. See I. Minami, Y. Kozai, H. Nomura and T. Tashiro, Chem. Phar. Bull. 30:3106 (1982); W. M. Anderson, D. L. Delinick, L. Benninger, J. M. Wood, S. T. Smiley and L. B. Chen, Biochemical Pharmacology, 45:691 (1993). […] (See L. G. S. Brooker, L. A. Sweet, Science, 105, (1947) and I. Minami, Y. Kozai, H. Nomura, T. Tashiro, Chem. Pharm. Bull., 30,3106 (1982) on chemotherapeutic investigations of cyanine dyes.) Table I lists initial in vitro screening results in various cell lines and a comparison with Adriamycin, which is a widely used chemotherapeutic agent.
(§2) Description of Cell Line • 1. CV-1 Normal Monkey Kidney Epithelial (control) • 2. CX-1 Human Colon Carcinoma • 3. Human Breast Carcinoma • 4. Human Pancreatic Carcinoma • 5. Human Bladder Carcinoma • 6. Human Lung Carcinoma • 7. Human Squamous Cell Carcinoma • 8. Human Adrenal Cortex Carcinoma

[2] = test system: CCL 105 Human Adrenal Cortex Carcinoma; test: Initial in vitro screening, adrenal cortex carcinoma cells; assay type: cell-based; details: for Selectivity: IC50 CV-1 / IC50 cell line 8 (adrenal cortex carcinoma); for IC50: read-out: IC50 (concentration at which 50% of the cells of the culture are killed)
Source text: as §1, §2

[3] = test system: MCF-7 Human Breast Carcinoma; test: Initial in vitro screening, breast carcinoma cells; assay type: cell-based; details: for Selectivity: IC50 CV-1 / IC50 cell line 3 (breast carcinoma); for IC50 (concentration at which 50% of the cells of the culture are killed) / IC50: cell line 3, MCF-7 human breast carcinoma, unit from method; for IC50: MCF7, read-out: IC50 (concentration at which 50% of the cells of the culture are killed)
Source text: as §1, §2

[4] = Electrochemical oxidation potential measurement, SHACV / fast scan CV; assay type: physicochemical; details: Table XIX; oxidation potential vs. Ag/AgCl; in V (unit assumed)
Source text: If a published reduction potential is not available, suitable techniques for measuring reduction potential are available. Accurate electrochemical oxidation and reduction potentials for these organic dyes can be measured by the techniques of fast scan cyclic voltommetry (CV) or second harmonic ac voltommetry (SHACV). SHACV measurements are made as described by Lenhard in the Journal of Imaging Science volume 30, 1986 pp 27-35 using a commercially available (Princeton Applied Research Corp.) potentiostat in conjunction with voltage programmer, a conventional lock-in amplifier, and a low-distortion oscillator. The SHACV method utilizes an ac voltage waveform (of a frequency greater than or equal to 400 hz) that is superimposed on a DC potential ramp. On the other hand, the measurement of the oxidation or reduction potential by the CV method utilizes a (high frequency) triangular voltage waveform. The general procedures for measuring potentials by this method have been described by Wightman in Analytical Chemistry, 1984, vol. 56, pp524 and Journal of Physical Chemistry, 1984, vol. 88, pp3915. The specific application of this technique to the measurement of cyanine dye potentials has been reported by Nomura and Okazaki, Chemistry Letters, 1990, pp2231-2234. Commercial instrumentation especially designed for fast scan (i.e., high frequency) CV is available. It is noteworthy that because of the complicated nature of many of the cyanine dyes, electrochemical reactions, conventional slow scan cyclic voltommetry or polarography methods (as described by R. Large in Photographic Sensitivity, R. Cox, ed., Academic Press, New York, 1973, pp 241-263) provide only approximate values for oxidation and reduction potentials. Errors as large as 0.4 V from the true potential can be obtained by using slow scan CV or electrochemical methods.
The procedure for measuring the oxidation or reduction potential by the SHACV or fast scan CV method utilizes solutions of acetonitrile (or similar nonaqueous solvent) with added tetrabutylammonium tetrafluoroborate TBABF4 at a concentration of 0.1 M and ca. 5×10^−4 M of the cyanine, oxonol, or merocyanine dye. For measurement of the reduction potential the solution must be deaerated with argon prior to examination. The preferred working electrode is a Pt disk (ca. 0.02 cm^2) that is polished with 1 μm diamond paste, rinsed with water, and dried before each experiment. The reference electrode is a NaCl saturated calomel electrode. The cell and reference electrodes are maintained at 22 C. A value of 40 mV is added to the measured potentials to convert the number to that corresponding to an Ag/AgCl reference electrode. If a solvent other than acetonitrile is used then the measured potential must be referenced to a standard organic redox system such as ferrocene and corrected accordingly.
The procedure for measuring the oxidation or reduction potential by the SHACV method utilizes solutions of acetonitrile (or similar nonaqueous solvent) with added tetrabutylammonium tetrafluoroborate TBABF4 at a concentration of 0.1 M and ca. 5×10^−4 M of the cyanine, oxonol, or merocyanine dye. […] A value of 40 mV is added to the measured potentials to convert the number to that corresponding to an Ag/AgCl reference electrode. If a solvent other than acetonitrile is used then the measured potential must be referenced to a standard organic redox system such as ferrocene and corrected accordingly.

[5] = cell line 6, CCL 185 human lung carcinoma, unit from method
[6] = cell line 8, CCL 105 human adrenal cortex carcinoma, unit from method

| SMILES | Selectivity [1] | IC50 (concentration at which 50% of the cells of the culture are killed) [1, 5] [ng/mL] | Selectivity [2] | IC50 (concentration at which 50% of the cells of the culture are killed) [2, 6] [ng/mL] | Selectivity [3] | IC50 (concentration at which 50% of the cells of the culture are killed) [3] | IC50 [1, 5] [µg/mL] | IC50 [2, 6] [µg/mL] | IC50 [3] [µg/mL] | Eox [4] |
| --- | --- | --- | --- | --- | --- | --- | --- | --- | --- | --- |
| CCN1C(=CC=Cc2sc3cc4ccccc4cc3[n+]2CC)Sc2cc3ccccc3cc21 [AC-2] | >60 | <5 | >60 | <5 | >60 | <.005 µg/mL | – | – | – | – |
| COc1cccc2c1C(=O)c1c(O)c3c(c(O)c1C2=O)C[C@@](O)(C(=O)CO)C[C@@H]3O[C@H]1C[C@H](N)[C@H](O)[C@H](C)O1 [Adriamycin, reference compound] | 11 | – | 16 | – | 16 | – | 0.07 (≈ 0.129 µM) | 0.05 (≈ 0.092 µM) | 0.05 (≈ 0.092 µM) | – |
| CCN1/C(=C/C=C/c2sc3ccccc3[n+]2CC)Sc2ccccc21.[I-] [Dye D-101] | 50 | – | >100 | – | 13.3 | 0.03 µg/mL | – | – | – | 0.902 |
| CCN1/C(=C\C=C\C2=[N+](CC)c3ccccc3C2(C)C)C(C)(C)c2ccccc21 [Dye D-103] | – | – | – | – | – | – | – | – | – | 1.088 |
| CCN1/C(=C/C=C/c2sc3cc4ccccc4cc3[n+]2CC)Sc2cc3ccccc3cc21 [Dye D-109] | – | – | – | – | – | – | – | – | – | 1.015 |
| CCN1C(=CC=Cc2sc3cc4ccccc4nc3[n+]2CC)Sc2cc3ccccc3nc21 [Dye D-150] | 150 | – | 300 | – | 100 | – | 0.02 | 0.01 | 0.03 | 1.145 |
| CCN1/C(=C/C=C/c2sc3cc4ccccc4cc3[n+]2CC)Sc2cc3ccccc3cc21 [Dye D-160] | – | – | – | – | – | – | < 0.005 | < 0.005 | < 0.005 | 1.015 |
